Key:
Assay type in all cases: in vivo
Poa = assay: Pre-emergence test/Greenhouse, Poa; details: after three weeks
How it was run: (§1)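 In this greenhouse test the application rate per unit area, not the concentration of the preparation, defines the dose; the emulsified preparation is applied to soil about 24 h post-sowing. Plants are scored for % damage versus untreated control after three weeks.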

Maize [1] = assay: Pre-emergence test/Greenhouse, Maize; details: in vivo
How it was run: as §1

Matricaria [2] = assay: Post-emergence test/greenhouse, Matricaria; details: greenhouse, after three weeks
Protocol: (§2) Solvent: 5 parts by weight of acetone
(§3) Emulsifier: 1 part by weight of alkylaryl polyglycol ether
(§4) To produce a suitable preparation of active compound, 1 part by weight of active compound is mixed with the stated amount of solvent, the stated amount of emulsifier is added and the concentrate is diluted with water to the desired concentration.
(§5) Test plants which have a height of 5-15 cm are sprayed with the preparation of the active compound in such a way as to apply the particular amounts of active compound desired per unit area. The concentration of the spray liquor is chosen so that the particular amounts of active compound desired are applied in 2000 l of water/ha.
(§6) After three weeks, the degree of damage to the plants is rated in % damage in comparison to the development of the untreated control.
(§7) 0%=no action (like untreated control)

Lolium [3] = assay: Pre-emergence test/Greenhouse, Lolium; details: after three weeks
How it was run: as §1

Sorghum [4] = assay: Pre-emergence test/Greenhouse, Sorghum; details: after three weeks
How it was run: as §1

Matricaria [5] = assay: Pre-emergence test/Greenhouse, Matricaria; details: after three weeks
How it was run: as §1

Soya beans = assay: Pre-emergence test/Greenhouse, Soya beans; details: in vivo
How it was run: as §1

Digitaria = assay: Post-emergence test/greenhouse, Digitaria; details: greenhouse, after three weeks
Protocol: as §2, §3, §4, §5, §6, §7

Lolium [6] = assay: Post-emergence test/greenhouse, Lolium; details: greenhouse, after three weeks
Protocol: as §2, §3, §4, §5, §6, §7

Gallium = assay: Post-emergence test/greenhouse, Gallium; details: greenhouse, after three weeks
Protocol: as §2, §3, §4, §5, §6, §7

Amaranthus = assay: Post-emergence test/greenhouse, Amaranthus; details: greenhouse, after three weeks
Protocol: as §2, §3, §4, §5, §6, §7

weeds [7] = assay: Pre-emergence test (greenhouse), activity against weeds; details: in words
How it was run: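 Compound formulated in acetone with alkylaryl polyglycol ether emulsifier, diluted in water, and watered onto soil about 24 h after sowing, dosed by application rate per unit area. Damage rated after three weeks as % versus untreated control (0% = no action).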

Stellaria = assay: Post-emergence test/greenhouse, Stellaria; details: greenhouse, after three weeks
Protocol: as §2, §3, §4, §5, §6, §7

Echinochloa = assay: Post-emergence test/greenhouse, Echinochloa; details: greenhouse, after three weeks
Protocol: as §2, §3, §4, §5, §6, §7

Sorghum [8] = assay: Post-emergence test/greenhouse, Sorghum; details: greenhouse, after three weeks
Protocol: as §2, §3, §4, §5, §6, §7

Solanum = assay: Pre-emergence test/Greenhouse, Solanum; details: after three weeks
How it was run: as §1

Maize [9] = assay: Post-emergence test/greenhouse, Maize; details: greenhouse, after three weeks
Protocol: as §2, §3, §4, §5, §6, §7

weeds [10] = assay: Post-emergence test (greenhouse), activity against weeds; details: in words
Protocol: as §2, §3, §4, §5, §6, §7

Ambrosia = assay: Pre-emergence test/Greenhouse, Ambrosia; details: after three weeks
How it was run: as §1

Structure (SMILES)	degree of damage to the plants (% damage vs untreated control), Poa (Poa; 60 g of ai./ha) [%]	degree of damage to the plants (% damage vs untreated control), Maize (Maize [1]) [%]	degree of damage, Matricaria (Matricaria [2]; 60 g of ai./ha) [%]	degree of damage to the plants (% damage vs untreated control), Lolium (Lolium [3]; 60 g of ai./ha) [%]	degree of damage to the plants (% damage vs untreated control), Sorghum (Sorghum [4]; 60 g of ai./ha) [%]	degree of damage to the plants (% damage vs untreated control), Matricaria (Matricaria [5]; 60 g of ai./ha) [%]	degree of damage to the plants (% damage vs untreated control), Soya beans (Soya beans) [%]	degree of damage, Digitaria (Digitaria; 60 g of ai./ha) [%]	degree of damage, Lolium (Lolium [6]; 60 g of ai./ha) [%]	degree of damage, Gallium (Gallium; 60 g of ai./ha) [%]	degree of damage, Amaranthus (Amaranthus; 60 g of ai./ha) [%]	activity against weeds (weeds [7])	degree of damage, Stellaria (Stellaria; 60 g of ai./ha) [%]	degree of damage, Echinochloa (Echinochloa; 60 g of ai./ha) [%]	degree of damage, Sorghum (Sorghum [8]; 60 g of ai./ha) [%]	degree of damage to the plants (% damage vs untreated control), Solanum (Solanum; 60 g of ai./ha) [%]	degree of damage, Maize (Maize [9]; 60 g of ai./ha) [%]	activity against weeds (weeds [10])	degree of damage to the plants (% damage vs untreated control), Ambrosia (Ambrosia; 60 g of ai./ha) [%]	degree of damage to the plants (% damage vs untreated control), Poa (Poa; 15 g of ai./ha) [%]	also measured
COCc1nn(C(=O)NS(=O)(=O)c2c(C)csc2C(=O)OC)c(=O)n1C [Example 32]	95	20	80	95	60	95	20	70	70	70	95	very strong activity against weeds	90	100	95	95	70	very strong activity against weeds	95		
COC(=O)c1scc(C)c1S(=O)(=O)NC(=O)n1nc(OC)n(C)c1=O [Example 31]		10										very strong activity against weeds						very strong activity against weeds		95	degree of damage, Matricaria (Matricaria [2]; 30 g of ai./ha): 100%; degree of damage to the plants (% damage vs untreated control), Lolium (Lolium [3]; 15 g of ai./ha): 95%; degree of damage to the plants (% damage vs untreated control), Sorghum (Sorghum [4]; 15 g of ai./ha): 80%; degree of damage to the plants (% damage vs untreated control), Matricaria (Matricaria [5]; 15 g of ai./ha): 95%; degree of damage, Digitaria (Digitaria; 30 g of ai./ha): 95%; degree of damage, Lolium (Lolium [6]; 30 g of ai./ha): 90%; degree of damage, Gallium (Gallium; 30 g of ai./ha): 80%; degree of damage, Amaranthus (Amaranthus; 30 g of ai./ha): 100%; degree of damage, Stellaria (Stellaria; 30 g of ai./ha): 95%; degree of damage, Echinochloa (Echinochloa; 30 g of ai./ha): 95%; degree of damage, Sorghum (Sorghum [8]; 30 g of ai./ha): 80%; degree of damage to the plants (% damage vs untreated control), Solanum (Solanum; 15 g of ai./ha): 95%; degree of damage, Maize (Maize [9]; 30 g of ai./ha): 5%; degree of damage to the plants (% damage vs untreated control), Ambrosia (Ambrosia; 15 g of ai./ha): 95%
COC(=O)c1cccc(C)c1S(=O)(=O)NC(=O)n1nc(SCCF)n(C2CC2)c1=O [Example 151]		20					10					very strong activity against weeds						very strong activity against weeds		90	degree of damage, Matricaria (Matricaria [2]; 30 g of ai./ha): 90%; degree of damage to the plants (% damage vs untreated control), Lolium (Lolium [3]; 15 g of ai./ha): 90%; degree of damage to the plants (% damage vs untreated control), Sorghum (Sorghum [4]; 15 g of ai./ha): 50%; degree of damage to the plants (% damage vs untreated control), Matricaria (Matricaria [5]; 15 g of ai./ha): 90%; degree of damage, Digitaria (Digitaria; 30 g of ai./ha): 90%; degree of damage, Lolium (Lolium [6]; 30 g of ai./ha): 60%; degree of damage, Gallium (Gallium; 30 g of ai./ha): 90%; degree of damage, Amaranthus (Amaranthus; 30 g of ai./ha): 95%; degree of damage, Stellaria (Stellaria; 30 g of ai./ha): 90%; degree of damage, Echinochloa (Echinochloa; 30 g of ai./ha): 70%; degree of damage, Sorghum (Sorghum [8]; 30 g of ai./ha): 90%; degree of damage to the plants (% damage vs untreated control), Solanum (Solanum; 15 g of ai./ha): 90%; degree of damage, Maize (Maize [9]; 30 g of ai./ha): 60%; degree of damage to the plants (% damage vs untreated control), Ambrosia (Ambrosia; 15 g of ai./ha): 80%
COCc1nn(C(=O)NS(=O)(=O)c2c(C)csc2C(=O)OC)c(=O)n1C1CC1 [Example 28]	95	0	90	95	95	95		90	60	80	100	very strong activity against weeds	100	80	95	95	10	very strong activity against weeds	95		
CCOc1nn(C(=O)NS(=O)(=O)c2c(C)cccc2C(=O)OC)c(=O)n1C [Example 163]		20	100				0	80	80	95	100	very strong activity against weeds	95	70	95		60	very strong activity against weeds			degree of damage to the plants (% damage vs untreated control), Poa (Poa; 4 g of ai./ha): 95%; degree of damage to the plants (% damage vs untreated control), Lolium (Lolium [3]; 4 g of ai./ha): 80%; degree of damage to the plants (% damage vs untreated control), Sorghum (Sorghum [4]; 4 g of ai./ha): 60%; degree of damage to the plants (% damage vs untreated control), Solanum (Solanum; 4 g of ai./ha): 90%; degree of damage to the plants (% damage vs untreated control), Ambrosia (Ambrosia; 4 g of ai./ha): 80%
COC(=O)c1scc(C)c1S(=O)(=O)NC(=O)n1nc(SC)n(C)c1=O [Example 6]		0										very strong activity against weeds						very strong activity against weeds			degree of damage to the plants (% damage vs untreated control), Poa (Poa; 125 g of ai./ha): 95%; degree of damage, Matricaria (Matricaria [2]; 400 g of ai./ha): 100%; degree of damage to the plants (% damage vs untreated control), Lolium (Lolium [3]; 125 g of ai./ha): 95%; degree of damage to the plants (% damage vs untreated control), Sorghum (Sorghum [4]; 125 g of ai./ha): 95%; degree of damage to the plants (% damage vs untreated control), Matricaria (Matricaria [5]; 125 g of ai./ha): 95%; degree of damage, Digitaria (Digitaria; 400 g of ai./ha): 90%; degree of damage, Lolium (Lolium [6]; 400 g of ai./ha): 95%; degree of damage, Gallium (Gallium; 400 g of ai./ha): 90%; degree of damage, Amaranthus (Amaranthus; 400 g of ai./ha): 100%; degree of damage, Stellaria (Stellaria; 400 g of ai./ha): 100%; degree of damage, Echinochloa (Echinochloa; 400 g of ai./ha): 95%; degree of damage, Sorghum (Sorghum [8]; 400 g of ai./ha): 80%; degree of damage to the plants (% damage vs untreated control), Solanum (Solanum; 125 g of ai./ha): 95%; degree of damage, Maize (Maize [9]; 400 g of ai./ha): 20%; degree of damage to the plants (% damage vs untreated control), Ambrosia (Ambrosia; 125 g of ai./ha): 95%
